We go through 10 molecules from patent US20090143279A1 (priority 2007, published 2009).

Where two headings read alike, the source gives them in different places.

Experiment [1] relates to mitochondrial membrane potential. The experiment is classed as cell-based, mouse.
The test system of another experiment is reactive oxygen species. The experiment is classed as cell-based, mouse.
Another experiment has as its system OXPHOS gene expression. The experiment is classed as cell-based, mouse.
For a further experiment, the system named is nuOXPHOS transcripts. Format: cell-based, mouse.
In a further experiment the test system is mtOXPHOS transcripts. The experiment is classed as cell-based, mouse.
A further experiment concerns cytochrome c. Format: cell-based, mouse.
In experiment [2] the test system is cellular dehydrogenase activity.
[3] abbreviates: 20 μM, composite Z-score vs DMSO.
Setting [4] is: composite Z-score vs DMSO, Conc 20 μM.
[5] abbreviates: normalized composite Z-score vs mock-treated (DMSO) wells, Conc 20 μM.
Setting [6] is: composite Z-score vs mock-treated (DMSO) wells, Conc 20 μM.
[7] abbreviates: composite Z-score vs DMSO, Conc 10.62 μM.

In turn, `CC(=O)OCC(COC(C)=O)OC(C)=O` [triacetin] yielded a ΔΨm in experiment [1] (setting [3]) of −0.571. Besides, in the experiment on reactive oxygen species (setting [3]), the ROS worked out at 0.431. The GE-HTS in the experiment with OXPHOS gene expression (setting [3]) was −0.327. In the experiment with nuOXPHOS transcripts (setting [3]), the nucOX was −0.187. In the experiment with mtOXPHOS transcripts (setting [3]), the mitoOX is given as −0.569. The cyt c in the experiment with cytochrome c (setting [3]) is −0.264. The molecule also gave a Viability in the experiment with C2C12 myotubes (setting [3]) of −0.842. Besides, in experiment [2] (setting [3]), the MTT is −0.717.
Regarding `CN1CCc2cc3c(cc2[C@H]1[C@@H]1OC(=O)c2c1ccc1c2OCO1)OCO3` [(+)-bicuculline], the ΔΨm in experiment [1] is reported as −0.852; in experiment [1] (setting [4]), −0.945. Moreover, the ROS with reactive oxygen species came out at 0.256; in the experiment on reactive oxygen species (setting [4]) it was 0.428. For the same molecule, the GE-HTS with OXPHOS gene expression (setting [4]) is on record as −0.189. Also, the nucOX in the experiment on nuOXPHOS transcripts (setting [4]) is −0.028. In addition, the mitoOX with mtOXPHOS transcripts (setting [4]) is given as −0.495. The cyt c in the experiment on cytochrome c is recorded as 0.300; with cytochrome c (setting [4]) it was −0.116. Also, the figures for the Viability in the experiment with C2C12 myotubes and in the experiment on C2C12 myotubes (setting [4]) were −0.190 and −0.572, respectively. Further, the MTT in experiment [2] is recorded as −1.330; in experiment [2] (setting [4]) it was −0.812.
As for `COc1ccc([C@H]2Oc3cc(OC)cc(OC)c3C[C@H]2O)cc1` [epiafzelechin trimethyl ether], the ΔΨm in experiment [1] (setting [5]) is recorded as −0.324. Moreover, the ROS with reactive oxygen species (setting [5]) is −0.190. Also, the GE-HTS in the experiment on OXPHOS gene expression (setting [5]) is reported as 0.019. In addition, the nucOX with nuOXPHOS transcripts (setting [5]) is given as −0.134. In the experiment with mtOXPHOS transcripts (setting [5]), this molecule returned a mitoOX of 0.350. In the experiment with cytochrome c (setting [5]), this molecule came in with a cyt c of 1.099. In the experiment on C2C12 myotubes (setting [5]), this molecule came in with a Viability of 0.557. In experiment [2] (setting [5]), this molecule displayed an MTT of −0.884.
In experiment [1] (setting [5]), `C[C@]12CC[C@H](O)C[C@H]1CC[C@@H]1[C@@H]2[C@H](O)C[C@]2(C)[C@@H](C3=CC(=O)OC3)CC[C@]12O` [sarmentogenin] returned a ΔΨm of −0.354. In the experiment with reactive oxygen species (setting [5]), the ROS is on record as −0.151. The same molecule had a GE-HTS in the experiment on OXPHOS gene expression (setting [5]) of 0.508. This molecule also had a nucOX in the experiment on nuOXPHOS transcripts (setting [5]) of 0.691. In the experiment with mtOXPHOS transcripts (setting [5]), this molecule registered a mitoOX of 0.077. Also, the cyt c with cytochrome c (setting [5]) is 0.614. The same molecule yielded a Viability with C2C12 myotubes (setting [5]) of 0.694. Also, in experiment [2] (setting [5]), the MTT was −0.191.
As to `Cc1cc(O)cc(O)c1C(=O)O` [orsellinic acid], in experiment [1] (setting [6]), the ΔΨm is given as −0.846. In addition, the ROS in the experiment on reactive oxygen species (setting [6]) turned out to be 1.236. Moreover, the GE-HTS in the experiment on OXPHOS gene expression (setting [6]) was −0.348. The molecule also had a nucOX in the experiment with nuOXPHOS transcripts (setting [6]) of −0.350. For the same molecule, in the experiment on mtOXPHOS transcripts (setting [6]), the mitoOX was −0.333. In the experiment with cytochrome c (setting [6]), this molecule gave a cyt c of −0.015. Also, the Viability in the experiment on C2C12 myotubes (setting [6]) was −0.320. Further, the MTT in experiment [2] (setting [6]) was −1.311.
As for `C[C@H]1C[C@@H]2[C@H]([C@@H](O)C[C@@]3(C)[C@H]2CC[C@]3(O)C(=O)CO)[C@@]2(C)C=CC(=O)C=C12` [methylprednisolone], the ΔΨm in experiment [1] is −0.375. Besides, the ROS with reactive oxygen species is on record as 0.133. The GE-HTS in the experiment with OXPHOS gene expression is −0.220. Also, the nucOX in the experiment with nuOXPHOS transcripts is listed as −0.138. This molecule returned a mitoOX with mtOXPHOS transcripts of −0.270. Also, the cyt c in the experiment with cytochrome c is −0.102. This molecule registered a Viability in the experiment with C2C12 myotubes of −0.631. For the same molecule, the MTT in experiment [2] is on record as −1.014.
For `O=C(c1ccccc1)c1ccc2n1CCC2C(=O)O` (stereo not drawn) [ketorolac], the ΔΨm in experiment [1] (setting [7]) was 0.136; in experiment [1] (setting [4]) it was −0.825. The ROS with reactive oxygen species (setting [7]) was found to be 0.482; with reactive oxygen species (setting [4]) it was 0.939. Besides, the GE-HTS in the experiment on OXPHOS gene expression (setting [7]) is recorded as 0.096; in the experiment on OXPHOS gene expression (setting [4]), −0.344. Also, the nucOX in the experiment on nuOXPHOS transcripts (setting [7]) is −0.072; with nuOXPHOS transcripts (setting [4]), −0.468. The mitoOX with mtOXPHOS transcripts (setting [7]) is on record as 0.412; in the experiment with mtOXPHOS transcripts (setting [4]), −0.033. The cyt c in the experiment on cytochrome c (setting [7]) was 0.315; in the experiment with cytochrome c (setting [4]), −0.707. Also, the Viability is reported as −0.773 in the experiment with C2C12 myotubes (setting [7]) and −0.363 with C2C12 myotubes (setting [4]). Also, the results for the MTT in experiment [2] (setting [7]) and in experiment [2] (setting [4]) were −0.563 and −0.053, respectively.
Turning to `CC1(C)C=Cc2cc3ccc(=O)oc3cc2O1` [xanthyletin], the ΔΨm in experiment [1] (setting [6]) was −0.220. In the experiment on reactive oxygen species (setting [6]), this molecule had an ROS of 0.217. The GE-HTS with OXPHOS gene expression (setting [6]) worked out at 1.029. Also, the nucOX in the experiment with nuOXPHOS transcripts (setting [6]) came out at 0.924. The same molecule gave a mitoOX with mtOXPHOS transcripts (setting [6]) of 1.085. In the experiment on cytochrome c (setting [6]), this molecule came in with a cyt c of −0.029. The Viability in the experiment with C2C12 myotubes (setting [6]) was −0.674. The same molecule gave an MTT in experiment [2] (setting [6]) of −1.741.
`NCCCCCN` [cadaverine] had a ΔΨm in experiment [1] (setting [4]) of −0.730. Moreover, the ROS in the experiment with reactive oxygen species (setting [4]) was determined as 0.160. The same molecule displayed a GE-HTS in the experiment with OXPHOS gene expression (setting [4]) of −0.553. Also, in the experiment with nuOXPHOS transcripts (setting [4]), the nucOX was −0.667. In the experiment on mtOXPHOS transcripts (setting [4]), this molecule had a mitoOX of −0.205. The same molecule displayed a cyt c in the experiment with cytochrome c (setting [4]) of −0.135. Further, the Viability in the experiment with C2C12 myotubes (setting [4]) is on record as −1.003. For the same molecule, in experiment [2] (setting [4]), the MTT is −0.915.
Molecule `COc1ccc2c(=O)ccoc2c1` [7-methoxychromone] displayed a ΔΨm in experiment [1] (setting [4]) of −0.875. Moreover, the ROS in the experiment with reactive oxygen species (setting [4]) came out at 0.919. In addition, the GE-HTS in the experiment on OXPHOS gene expression (setting [4]) is reported as −0.759. For the same molecule, the nucOX in the experiment with nuOXPHOS transcripts (setting [4]) was −0.818. Besides, the mitoOX in the experiment with mtOXPHOS transcripts (setting [4]) was −0.451. This molecule gave a cyt c with cytochrome c (setting [4]) of 0.511. Besides, the Viability in the experiment on C2C12 myotubes (setting [4]) is given as −0.999. Moreover, the MTT in experiment [2] (setting [4]) is −0.963.
